# Counter-ions that a name gives are not always drawn.
# Key:
# [1] = Powder flowability test (angle of repose); format: physicochemical; settings: for angle of repose: average of three determinations, α=arctg(H/R), hydrochloride; for flowability compared with forms I and II (in words): conclusion from angle of repose
# From the text: Angle of repose is adopted widely to evaluate the powder flowability. When the angle of repose of the powder is less than or equal to 30 degrees, it means the flowability of this powder is good. While in case, 40 degrees or less of the powder angle of repose, this powder can satisfy the demand for fluidity in the production process. When the angle of repose of the powder is more than 40 degrees, it means the very poor flowability of the drug powder which may cause the troubles above mentioned during the drug manufacturing process.
# Powder flowability test: A petri dish with a diameter of 7 cm in the bottom plate is used. Two glass funnels are staggered on top of each other and fixed on an iron stand. The distance between the lower funnel outlet and the bottom plate is between 3.5-6.0 cm. Take some cariprazine hydrochlorides in different crystal forms, and slowly add them from the upper funnel, so that the sample gradually accumulates on the chassis through the buffer of the two funnels to form a cone until the highest cone is obtained. Measure the height H of the cone. Determine three times for each sample, take the average, and calculate the angle of repose as follows: α=arctg(H/R) Among them, α is the angle of repose and R is the radius of the chassis.
# When the angle of repose of the powder is less than or equal to 30 degrees, it means flowability of powder is good. The flowability requirement in the manufactured process can be satisfied when it is less than or equal to 40 degrees. If the angle of repose of powder is more than 40 degrees, it means flowability is poor.
# [2] = Dissolution and re-precipitation time in pH 6.5 buffer (simulated fasting small intestine); format: physicochemical; settings: for Dissolving time / Precipitate time: 5 mg crystal form in 80 mL pH 6.5 buffer solution; for Dissolving time: shaken slightly; for Precipitate time: time of re-precipitation, hydrochloride
# Experimental: In Example 1, precipitation time for Form A and Forms I and II were compared under pH of simulated intestinal fluid. Take 5 mg of crystal forms A, I and II, and put them in 100-ml glass sample bottles, add 80 mL of pH 6.5 buffer solution (pH value of simulating fasting small intestine), and shake them slightly to observe precipitate. Dissolution status and time of re-precipitation were recorded.
# [3] = test system: schizophrenia; settings: cited from earlier work
# [4] = test system: bipolar disorder; settings: cited from earlier work
SMILES,angle of repose [1],Dissolving time [2],Precipitate time [2],most common adverse effects in the treatment of schizophrenia ([3]; clinical trials),"symptoms of schizophrenia compared to placebo group ([3]; six-week clinical trial, 1,754 participants, according to the FDA)","symptoms of bipolar disorder compared with placebo group ([4]; 6-week clinical trial, 1037 subjects)",most common adverse effects in the treatment of bipolar disorder ([4]; clinical trials),flowability compared with forms I and II (in words) [1],maintenance of dissolved state under near-neutral conditions compared to Forms I and II (in words) ([2]; pH 6.5 buffer)
"CN(C)C(=O)N[C@H]1CC[C@H](CCN2CCN(c3cccc(Cl)c3Cl)CC2)CC1 [Form II, cariprazine hydrochloride]",40°,immediately,1 min,–,–,–,–,–,–
"CN(C)C(=O)N[C@H]1CC[C@H](CCN2CCN(c3cccc(Cl)c3Cl)CC2)CC1 [Form I, cariprazine hydrochloride]",40°,immediately,1 min,–,–,–,–,–,–
"CN(C)C(=O)N[C@H]1CC[C@H](CCN2CCN(c3cccc(Cl)c3Cl)CC2)CC1 [Compound 1, hydrochloride]",–,–,–,"extrapyramidal symptoms, including tremor, speech insufficiency, and dystonia",significantly reduces the symptoms of schizophrenia,significantly reduce the symptoms of bipolar disorder,"extrapyramidal symptoms, manifested by inability to sit still, indigestion, vomiting, lethargy, and restlessness",–,–
"CN(C)C(=O)N[C@H]1CC[C@H](CCN2CCN(c3cccc(Cl)c3Cl)CC2)CC1 [Form B, trans-N-{4-[2-[4-(2,3-dichlorophenyl)-piperazine-1-yl]-ethyl]-cyclohexyl}-N′,N′-dimethylurea hydrochloride]",28°,–,–,–,–,–,–,significantly improve the flowability,–
"CN(C)C(=O)N[C@H]1CC[C@H](CCN2CCN(c3cccc(Cl)c3Cl)CC2)CC1 [Form A, trans-N-{4-[2-[4-(2,3-dichlorophenyl)-piperazine-1-yl]-ethyl]-cyclohexyl}-N′,N′-dimethylurea hydrochloride]",35°,immediately,10 min,–,–,–,–,significantly improve the flowability,significantly prolonged maintenance
"CN(C)C(=O)N[C@H]1CC[C@H](CCN2CCN(c3cccc(Cl)c3Cl)CC2)CC1 [Form C, trans-N-{4-[2-[4-(2,3-dichlorophenyl)-piperazine-1-yl]-ethyl]-cyclohexyl}-N′,N′-dimethylurea hydrochloride]",31°,–,–,–,–,–,–,significantly improve the flowability,–

# — US11319293B2, “Polymorps of cariprazine hydrochloride and preparation method thereof and use of same” (SHANGHAI BEGREAT PHARMATECH, priority 2018, dated 2022)
